# Measured values reported in publication PMC10976477 (RSC Advances, 2024).
# Key:
# [1] = Ferric ion reducing antioxidant power; conditions: μM equivalent to the standard antioxidant ascorbic acid
# [2] = DPPH radical scavenging assay; conditions: read-out: IC50 (μM) ± SEM DPPH
# [3] = ABTS radical cation scavenging assay; conditions: read-out: IC50 (μM) ± SEM ABTS
# human MAO-B = target: T1, human MAO-B (Homo sapiens, UniProt P27338); assay: MAO-B inhibition assay; format: biochemical; conditions: for SI = IC50 of MAO-A/IC50 of MAO-B: selectivity index
# T1 sequence (P27338 1-520): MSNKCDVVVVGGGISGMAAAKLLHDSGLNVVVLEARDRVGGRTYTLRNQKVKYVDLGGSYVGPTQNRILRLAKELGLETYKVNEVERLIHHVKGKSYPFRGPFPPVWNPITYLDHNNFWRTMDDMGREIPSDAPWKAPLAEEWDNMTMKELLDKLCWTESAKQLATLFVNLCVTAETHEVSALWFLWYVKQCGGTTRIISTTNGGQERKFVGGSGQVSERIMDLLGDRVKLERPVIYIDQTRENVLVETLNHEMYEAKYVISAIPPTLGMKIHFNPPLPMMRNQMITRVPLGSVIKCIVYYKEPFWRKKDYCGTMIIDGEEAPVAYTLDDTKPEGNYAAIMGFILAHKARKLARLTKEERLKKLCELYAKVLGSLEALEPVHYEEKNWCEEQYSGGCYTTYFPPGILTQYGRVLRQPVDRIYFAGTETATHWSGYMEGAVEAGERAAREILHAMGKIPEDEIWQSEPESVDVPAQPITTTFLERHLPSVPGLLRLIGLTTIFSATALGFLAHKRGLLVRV
# eeAChE = eeAChE (Electrophorus electricus, UniProt O42275); assay: Cholinesterase inhibition, Ellman's assay; format: biochemical, electric eel; conditions: for SI = IC50 of BChE/IC50 of AChE: selectivity index
# eqBChE = eqBChE (Equus caballus, UniProt P81908); assay: biochemical
# human MAO-A = target: T2, human MAO-A (Homo sapiens, UniProt P21397); assay: MAO-A inhibition assay; format: biochemical
# T2 sequence (P21397 1-527): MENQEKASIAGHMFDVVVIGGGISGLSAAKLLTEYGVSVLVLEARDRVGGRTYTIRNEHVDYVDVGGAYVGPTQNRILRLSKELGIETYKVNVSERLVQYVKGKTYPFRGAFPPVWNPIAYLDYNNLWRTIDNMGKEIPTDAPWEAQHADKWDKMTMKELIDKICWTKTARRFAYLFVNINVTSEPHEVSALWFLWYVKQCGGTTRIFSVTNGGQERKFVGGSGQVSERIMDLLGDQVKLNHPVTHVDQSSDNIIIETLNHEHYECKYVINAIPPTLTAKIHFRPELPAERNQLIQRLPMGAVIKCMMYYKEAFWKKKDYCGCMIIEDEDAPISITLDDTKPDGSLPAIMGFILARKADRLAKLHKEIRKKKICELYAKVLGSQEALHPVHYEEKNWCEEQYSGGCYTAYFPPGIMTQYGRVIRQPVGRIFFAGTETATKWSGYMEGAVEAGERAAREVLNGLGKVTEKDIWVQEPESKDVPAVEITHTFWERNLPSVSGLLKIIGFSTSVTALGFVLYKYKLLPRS
# HEK-293 cells = assay: Cell viability assay on normal human embryonic HEK-293 cells; format: cell-based; conditions: 1, 10, 20, 40 and 100 μM, MTT
# Aβ1–42 peptide = Aβ1–42 peptide (Homo sapiens, UniProt P05067); assay: ThT fluorescence assay for self-mediated Aβ1–42 aggregation; format: biochemical; conditions: for inhibition of amyloid beta fibrils: after a 24-hour equimolar administration, ThT fluorescence (Fig. 4)
# COX-2 = target: T3, COX-2 (Homo sapiens, UniProt P35354); assay: biochemical
# T3 sequence (P35354 18-604): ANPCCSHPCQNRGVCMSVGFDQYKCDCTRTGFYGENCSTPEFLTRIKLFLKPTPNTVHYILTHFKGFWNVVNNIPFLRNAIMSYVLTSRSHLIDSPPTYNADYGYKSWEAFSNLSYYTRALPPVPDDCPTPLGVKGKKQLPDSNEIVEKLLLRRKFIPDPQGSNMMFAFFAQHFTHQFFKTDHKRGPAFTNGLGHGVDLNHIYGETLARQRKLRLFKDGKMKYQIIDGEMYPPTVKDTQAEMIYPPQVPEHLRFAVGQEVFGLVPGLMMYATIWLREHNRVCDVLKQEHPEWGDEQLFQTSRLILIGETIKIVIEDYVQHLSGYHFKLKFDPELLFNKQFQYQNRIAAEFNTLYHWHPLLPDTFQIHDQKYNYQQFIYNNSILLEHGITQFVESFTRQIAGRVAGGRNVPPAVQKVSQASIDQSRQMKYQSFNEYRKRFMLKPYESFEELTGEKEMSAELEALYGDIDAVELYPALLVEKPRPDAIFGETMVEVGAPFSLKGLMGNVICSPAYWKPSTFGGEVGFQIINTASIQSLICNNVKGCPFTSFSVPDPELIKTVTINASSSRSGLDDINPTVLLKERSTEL
# SH-SY5Y cells = assay: SH-SY5Y neuroblastoma cell toxicity; format: cell-based, human; conditions: for neurotoxicity / cytotoxicity on SH-SY5Y cells: 10–100 μM, 48 h incubation, MTT
# [4] = In vivo antioxidant potential in mice; conditions: 5 mg kg^−1, SOD, CAT, GSH
# CAT = assay: In vivo CAT activity in brain of mice; conditions: high-test dose
# GSH-Px = assay: In vivo GSH-Px activity in brain of mice; conditions: 5 mg kg^−1
# MDA = assay: In vivo MDA level in brain of mice; conditions: 5 mg kg^−1
# SOD = assay: In vivo SOD level in brain of mice; conditions: 5 mg kg^−1
# Chain of eqBChE (P81908 whole entry): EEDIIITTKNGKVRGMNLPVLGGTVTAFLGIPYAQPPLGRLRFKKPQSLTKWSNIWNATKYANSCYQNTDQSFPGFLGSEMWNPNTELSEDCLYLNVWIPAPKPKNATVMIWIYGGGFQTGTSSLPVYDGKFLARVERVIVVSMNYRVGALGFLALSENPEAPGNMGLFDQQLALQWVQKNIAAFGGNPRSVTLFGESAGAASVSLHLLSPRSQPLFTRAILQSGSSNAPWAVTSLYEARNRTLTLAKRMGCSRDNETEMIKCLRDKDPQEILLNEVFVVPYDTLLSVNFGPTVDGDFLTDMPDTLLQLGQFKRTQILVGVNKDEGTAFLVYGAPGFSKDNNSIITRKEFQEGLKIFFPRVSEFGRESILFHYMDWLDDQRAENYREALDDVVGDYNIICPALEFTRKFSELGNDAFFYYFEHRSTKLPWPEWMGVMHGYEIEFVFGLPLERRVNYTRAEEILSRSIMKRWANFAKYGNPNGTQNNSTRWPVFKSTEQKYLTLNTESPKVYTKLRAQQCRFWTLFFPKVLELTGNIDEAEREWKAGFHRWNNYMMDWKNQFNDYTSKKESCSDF
# Chain of Aβ1–42 peptide (P05067 672-713): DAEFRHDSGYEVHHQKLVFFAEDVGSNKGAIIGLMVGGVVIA
# Chain of eeAChE (O42275 24-633): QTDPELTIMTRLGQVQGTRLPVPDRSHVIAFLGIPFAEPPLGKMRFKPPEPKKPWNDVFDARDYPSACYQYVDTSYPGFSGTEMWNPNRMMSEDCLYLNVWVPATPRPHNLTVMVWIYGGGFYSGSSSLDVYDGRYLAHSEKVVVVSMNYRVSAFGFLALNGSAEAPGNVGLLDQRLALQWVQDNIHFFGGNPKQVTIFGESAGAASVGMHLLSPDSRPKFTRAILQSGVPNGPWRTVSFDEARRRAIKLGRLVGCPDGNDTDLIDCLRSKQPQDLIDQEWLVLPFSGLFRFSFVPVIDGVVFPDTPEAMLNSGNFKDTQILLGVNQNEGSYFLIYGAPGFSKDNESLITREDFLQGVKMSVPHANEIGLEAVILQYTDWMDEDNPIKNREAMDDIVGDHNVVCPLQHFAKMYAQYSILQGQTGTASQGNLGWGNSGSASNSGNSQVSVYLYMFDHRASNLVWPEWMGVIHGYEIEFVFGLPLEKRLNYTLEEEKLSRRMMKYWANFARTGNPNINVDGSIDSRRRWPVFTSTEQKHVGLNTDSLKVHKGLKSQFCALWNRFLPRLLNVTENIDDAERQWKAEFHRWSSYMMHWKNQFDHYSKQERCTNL
SMILES,FRAP value [1] [µM],IC50 [2] [µM],IC50 [3] [µM],IC50 (human MAO-B) [µM],IC50 (eeAChE) [µM],SI = IC50 of MAO-A/IC50 of MAO-B (human MAO-B),IC50 (eqBChE) [µM],IC50 (human MAO-A) [µM],SI = IC50 of BChE/IC50 of AChE (eeAChE),cytotoxic effect on viability of HEK-293 cells (HEK-293 cells),IC50 (Aβ1–42 peptide) [µM],inhibition of amyloid beta fibrils (Aβ1–42 peptide),IC50 (COX-2) [µM],neurotoxicity / cytotoxicity on SH-SY5Y cells (SH-SY5Y cells),in vivo antioxidant activity [4],protective ability on SH-SY5Y (SH-SY5Y cells; at all concentrations (10–100 μM)),CAT activity (CAT) [U mL^−1],brain GSH-Px activity (GSH-Px),MDA concentration in animal brains (MDA) [nmol/mL],brain's SOD level (SOD) [U mL^−1]
"O=C1O[C@H]([C@@H](O)CO)C(O)=C1O [Ascorbic acid, reference compound]",90.89,4.89 ± 0.09,6.08 ± 0.21,–,–,–,–,–,–,–,–,–,–,–,–,–,–,–,–,–
"COc1cc(/C=C/C(=O)NC(C)C(N)=O)ccc1O (stereo not drawn) [Compound 18, (E)-N-(1-Amino-1-oxopropan-2-yl)-3-(4-hydroxy-3-methoxyphenyl)acrylamide]",29.84,58.3 ± 1.21,45.1 ± 1.77,10 ± 1.03,58.4 ± 0.09,–,–,–,–,–,–,–,–,–,–,–,–,–,–,–
"CC(NC(=O)/C=C/c1ccc(-c2ccccc2)cc1)C(N)=O (stereo not drawn) [Compound 20, (E)-3-([1,1′-Biphenyl]-4-yl)-N-(1-amino-1-oxopropan-2-yl)acryl-amide]",44.81,–,77.1 ± 1.37,0.513 ± 0.07,13.51 ± 0.1,19,84.1 ± 1.32,10 ± 0.925,6,–,–,–,–,–,–,–,–,–,–,–
"COc1cc(/C=C/C(=O)Nc2nc3ccc(O)cc3s2)ccc1O [Compound 21, (E)-3-(4-Hydroxy-3-methoxyphenyl)-N-(6-hydroxybenzo[d]thiazol-2-yl)acrylamide]",36.01,14.44 ± 0.13,6.29 ± 0.09,0.491 ± 0.024,29.84 ± 0.1,75,43.1 ± 1.09,37.1 ± 1.03,1,–,–,–,–,–,–,–,–,–,–,–
"O=C(/C=C/c1ccc(-c2ccccc2)cc1)Nc1nc2ccc(O)cc2s1 [Compound 23, (E)-3-([1,1′-Biphenyl]-4-yl)-N-(6-hydroxybenzo[d]thiazol-2-yl)acryl-amide]",53.57,18.19 ± 0.11,12.1 ± 0.14,–,0.071 ± 0.1,270,15.6 ± 0.901,10 ± 0.5,220,not showed in cytotoxic effect,23.1 ± 1.05,approximately 30%,14.4 ± 0.28,did not show any apparent neurotoxicity,good to moderate in vivo antioxidant activity,–,–,–,–,–
"COc1cc(/C=C/C(=O)Nc2ccc(S(N)(=O)=O)cc2)ccc1O [Compound 24, (E)-3-(4-Hydroxy-3-methoxyphenyl)-N-(4-sulfamoylphenyl)acryl-amide]",14.75,21.21 ± 0.15,48.8 ± 1.2,0.142 ± 0.011,10.74 ± 0.1,539,58.2 ± 1.41,76.6 ± 1.22,5,–,–,–,–,–,–,–,–,–,–,–
"COc1cc(/C=C/C(=O)Nc2ccc(S(N)(=O)=O)cc2)ccc1OCc1ccccc1 [Compound 25, (E)-3-(4-(Benzyloxy)-3-methoxyphenyl)-N-(4-sulfamoylphenyl)acrylamide]",20.07,25 ± 1.16,20.7 ± 1.11,0.066 ± 0.004,0.835 ± 0.1,426,14.1 ± 0.639,28.2 ± 1.09,17,not showed in cytotoxic effect,14.1 ± 0.24,~50%,0.74 ± 0.13,did not show any apparent neurotoxicity,–,–,–,–,–,–
"NS(=O)(=O)c1ccc(NC(=O)/C=C/c2ccc(-c3ccccc3)cc2)cc1 [Compound 26, (E)-3-([1,1′-Biphenyl]-4-yl)-N-(4-sulfamoylphenyl)acrylamide]",24.7,–,40.6 ± 1.11,0.327 ± 0.011,0.89 ± 0.1,60,1.03 ± 0.031,19.9 ± 1.17,1,not showed in cytotoxic effect,19.52 ± 0.18,–,2.19 ± 0.1,–,–,–,–,–,–,–
"CC(NC(=O)c1cc(O)c(O)c(O)c1)C(N)=O (stereo not drawn) [Compound 27, N-(1-Amino-1-oxopropan-2-yl)-3,4,5-trihydroxybenzamide]",–,14.6 ± 0.52,20.4 ± 0.3,30.2 ± 1.18,49.03 ± 0.1,–,–,–,–,–,–,–,–,–,–,40–50%,–,–,–,–
"O=C(Nc1nc2ccc(O)cc2s1)c1cc(O)c(O)c(O)c1 [Compound 28, 3,4,5-Trihydroxy-N-(6-hydroxybenzo[d]thiazol-2-yl)benzamide]",45.24,1.77 ± 0.04,2.06 ± 0.11,0.219 ± 0.34,1.48 ± 0.1,46,9.25 ± 0.506,10.1 ± 0.239,6,not showed in cytotoxic effect,11.29 ± 0.08,around 60%,10.4 ± 0.13,did not show any apparent neurotoxicity,good to moderate in vivo antioxidant activity,–,97,increases the antioxidant enzymatic activity of GSH-Px,1.15,94.20
"NS(=O)(=O)c1ccc(NC(=O)c2cc(O)c(O)c(O)c2)cc1 [Compound 29, 3,4,5-Trihydroxy-N-(4-sulfamoylphenyl)benzamide]",–,10.8 ± 0.63,23.5 ± 1.04,0.395 ± 0.34,3.64 ± 0.1,54,34 ± 1.18,21.4 ± 0.316,9,–,–,–,–,did not show any apparent neurotoxicity,not determined to be active,–,–,–,–,–
"COc1cc(/C=C/C(=O)CC(=O)/C=C/c2ccc(O)c(OC)c2)ccc1O [Curcumin, reference compound]",–,–,–,–,–,–,–,–,–,–,–,around 60%,–,–,–,–,–,–,–,–
"COc1cc(/C=C/C(=O)O)ccc1O [Ferulic acid, trans-4-hydroxy-3-methoxycinnamic acid, reference compound]",–,69.8 ± 1.48,–,–,–,–,–,–,–,–,–,–,–,–,–,–,–,–,–,–
"O=C(O)c1cc(O)c(O)c(O)c1 [Gallic acid, reference compound]",–,35.2 ± 1.04,35.2 ± 1.19,–,–,–,–,–,–,–,–,–,–,–,–,–,–,–,–,–
"C#CCN[C@@H]1CCc2ccccc21 [rasigiline, rasagiline, reference compound]",–,–,–,–,–,–,–,–,–,–,–,–,–,no cytotoxicity,–,–,–,–,–,–
"Cc1c(C)c2c(c(C)c1O)CCC(C)(C(=O)O)O2 (stereo not drawn) [trolox, reference compound]",–,–,–,–,–,–,–,–,–,–,–,–,–,no cytotoxicity,significant antioxidant potential,–,–,–,–,–
